Values quoted from earlier work in patent publication US20050163873A1, “Methods and formulations for treating glaucoma” (priority 2004, published 2005).
Blank lines part the entries; values can stand above or below the compound they belong to.

Assays:
diabetic rats [1] = system: diabetic rats
heme oxygenase 1 = details: neuronal cell cultures
[2] = system: inducible nitric oxide synthase (iNOS)
[3] = system: cultured neuronal cells and astrocytes; details: pretreatment of cultured neuronal cells and astrocytes
rabbits [4] = system: rabbits
retina = details: guinea pig, in vivo
[5] = system: primary cultures of cerebellar neurons
rabbits [6] = system: rabbits; remark: listed apart in the source
[7] = system: human Tenon's capsule fibroblast; details: human Tenon's capsule fibroblasts
[8] = system: nitric oxide and tumor necrosis factor alpha
[9] = system: cultured retinal ganglion cells
[10] = system: cultured neurons from embryonic mouse cortex and striatum
[11] = system: tumor necrosis factor-alpha (TNF-α) and nitric oxide (NO)
HIV-1 enzyme integrase = HIV-1 enzyme integrase (Human immunodeficiency virus type 1 group M subtype B, UniProt P04585)
[12] = folic acid 400 μg associated with vitamin B6 and B12
diabetic rats [13] = system: diabetic rats; remark: listed apart in the source
[14] = system: goldfish retinal explants; details: post-crush goldfish retinal explants, in the presence of fetal calf serum
hippocampal CA1 neurons = details: central infusion after forebrain ischemia, gerbil

SMILES: O=C(O)CCCCC1CCSS1 (stereo not drawn) [alpha-lipoic acid, Alpha-lipoic acid]
- amount of leukostasis (diabetic rats [1]): normalized

- heme oxygenase 1 (heme oxygenase 1): induces
SMILES: Oc1ccc(C=Cc2cc(O)cc(O)c2)cc1 [resveratrol, Resveratrol]

SMILES: N[C@H]1C(O)O[C@H](CO)[C@@H](O)[C@@H]1O (stereo partly shown) [glucosamine]
- inducible nitric oxide synthase (iNOS) inhibition [2]: inhibits

SMILES: COC1=C(OC)C(=O)C(C/C=C(\C)CC/C=C(\C)CC/C=C(\C)CC/C=C(\C)CC/C=C(\C)CC/C=C(\C)CC/C=C(\C)CC/C=C(\C)CC/C=C(\C)CCC=C(C)C)=C(C)C1=O [coenzyme Q10]
- cell death due to glutamate neurotoxicity [3]: inhibited cell death

SMILES: C=CCSSC[C@H](N)C(=O)O [S-Allylmercaptocysteine]
- IOP (rabbits [4]): lower IOP

SMILES: C[N+](C)(C)CC(O)CC(=O)[O-] (stereo not shown) [Carnitine]
- retinal injury following ischemia-reperfusion injury (retina): prevent
- glutamate neurotoxicity [5]: prevents

SMILES: Cc1c(C)c2c(c(C)c1O)CC[C@@](C)(CCC[C@H](C)CCC[C@H](C)CCCC(C)C)O2 [D-alpha-tocopherol]
- results of filtering surgery (rabbits [6]): improve the results
- amount of leukostasis (diabetic rats [1]): prevented the increases in leukostasis
- retinal blood flow (diabetic rats [1]): prevented
- fibroblast proliferation [7]: inhibit

SMILES: O=c1c(O)c(-c2ccc(O)c(O)c2)oc2cc(O)cc(O)c12 [Quercetin]
- release of nitric oxide and tumor necrosis factor alpha [8]: inhibits
- oxidative injury (cortical cell cultures): neuroprotective
- progression of selenite-induced cataract (rats): slow the progression

SMILES: C/C1=C2/[N-][C@H]([C@H](CC(N)=O)[C@@]2(C)CCC(=O)NC[C@@H](C)OP(=O)([O-])O[C@H]2[C@@H](O)[C@@H](n3cnc4cc(C)c(C)cc43)O[C@@H]2CO)[C@]2(C)N=C(/C(C)=C3N=C(/C=C4N=C1[C@@H](CCC(N)=O)C\4(C)C)[C@@H](CCC(N)=O)[C@]\3(C)CC(N)=O)[C@@H](CCC(N)=O)[C@]2(C)CC(N)=O.[CH3-].[Co+3] [Methylcobalamin]
- glutamate-induced neurotoxicity [9]: protects

SMILES: CC(=O)N[C@@H](CS)C(=O)O [N-acetyl-L-cysteine]
- neuronal cell survival rate [10]: increased

SMILES: COc1cc(C[C@H]2C(=O)OC[C@@H]2Cc2ccc(OC)c(OC)c2)ccc1O [Arctigenin]
- tumor necrosis factor-alpha (TNF-α) and nitric oxide (NO) production [11]: inhibit
- DNA topoisomerase II inhibition (DNA topoisomerase II): inhibitor
- HIV-1 enzyme integrase inhibition (HIV-1 enzyme integrase): inhibit
- glutamate toxicity (cultured neurons): protect

- visual evoked potential and pattern electroretinography (ERG) parameters (patients with glaucoma): significant (P<0.01) improvement
SMILES: C[N+](C)(C)CCOP(=O)(O)OP(=O)([O-])OC[C@H]1O[C@@H](n2ccc(N)nc2=O)[C@H](O)[C@@H]1O [citicoline, Citicoline]

SMILES: CC(C)=CCC[C@](C)(O)[C@H]1CC[C@]2(C)[C@@H]1[C@H](O)C[C@@H]1[C@@]3(C)CC[C@H](O[C@@H]4O[C@H](CO)[C@@H](O)[C@H](O)[C@H]4O[C@@H]4O[C@H](CO)[C@@H](O)[C@H](O)[C@H]4O)C(C)(C)[C@@H]3CC[C@]12C [Ginsenoside Rg3]
- neuroprotective effects on cultured cortical cells (cultured cortical cells): significant neuroprotective effects

SMILES: Nc1nc2ncc(CNc3ccc(C(=O)N[C@@H](CCC(=O)O)C(=O)O)cc3)nc2c(=O)[nH]1 [folic acid]
- reduction of homocysteine levels [12]: 30%

SMILES: NCCS(=O)(=O)O [Taurine]
- ATPase activity (diabetic rats [13]): preserves
- lipid peroxidation (diabetic rats [13]): significantly decreases
- neuritic outgrowth [14]: increased length and density of neurites

SMILES: CC(C)=CCC[C@](C)(O[C@@H]1O[C@H](CO[C@@H]2O[C@H](CO)[C@@H](O)[C@H](O)[C@H]2O)[C@@H](O)[C@H](O)[C@H]1O)[C@H]1CC[C@]2(C)[C@@H]1[C@H](O)C[C@@H]1[C@@]3(C)CC[C@H](O[C@@H]4O[C@H](CO)[C@@H](O)[C@H](O)[C@H]4O[C@@H]4O[C@H](CO)[C@@H](O)[C@H](O)[C@H]4O)C(C)(C)[C@@H]3CC[C@]12C [Ginsenoside Rb1, ginsenoside Rb1]
- protection of hippocampal CA1 neurons against lethal ischemic damage (hippocampal CA1 neurons): protects
- neuroprotective effects on cultured cortical cells (cultured cortical cells): significant neuroprotective effects
